Laboratory results reported in US20260176320A1, “MODULATORS OF G-PROTEIN COUPLED RECEPTORS” (priority 2018, published 2026).
Read-outs that look alike come from different tables or passages of the source.

How the values were obtained:
GLP-1R [1] = molecular target: T1, GLP-1R (Homo sapiens, UniProt P43220); assay: PathHunter β-arrestin assay; format: cell-based; details: PathHunter β-arrestin assay; read-out: β-arrestin activity EC50
Method in brief: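 Agonist concentration–response (22 points, 2-fold steps, duplicates) was run on cells plated the previous day in BSA-supplemented (0.2%) medium. Stimulation lasted 90 min at 37 °C, followed by a 3 h dark incubation with detection reagent at room temperature and a luminescence read.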

GLP-1R [2] = molecular target: T1, GLP-1R; assay: HitHunter cAMP assay (GLP-1R); format: cell-based; details: cAMP; for EC50: read-out: EC50 GLP-1R/nM; for Emax: read-out: (Emax) GLP-1R
Method in brief: (§1)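 Cells were resuspended in HBSS plus HEPES, IBMX (625 μM) and BSA, then dispensed with antibody at 10,000 per well. Agonists followed as 22-point twofold series, 30 min at room temperature. Antibody reagent and detection steps ran 1 h and overnight in the dark before luminescence.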

mice = assay: Glucose tolerance test (GTT); format: in vivo, mouse; details: 24 h GTT, s.c., dose range 2-5 nmol/kg, percent of vehicle
Method: Freestyle Lite glucometer and strips; compounds to be tested; sterilized glucose solution 200 mg/ml.
Compounds were diluted in PBS from the 1 mM DMSO stocks right before injection. Body weight and baseline blood glucose level for each mouse were measured. Tails were snipped using sterile scissors; blood from tails was used to measure glucose. For 0.25 h GTT, mice were fasted for 5-6 h and injected with compound subcutaneously 15 mins before glucose injection. For 4 h GTT, mice were fasted O/N for 16 h and injected with compound subcutaneously 4 h before glucose injection. For 16 h GTT, mice were injected with compound subcutaneously 16 h before glucose injection; food was removed at the same time. For 24 h GTT, mice were injected with compound subcutaneously 24 h before glucose injection; food was removed 5-6 h before glucose injection. 20% glucose in water was prepared; the solution was sterilized by 0.2 μm-filtration. An intraperitoneal injection of glucose (2 g/kg) was given to the mouse. Continued to take blood samples from the tail. Blood glucose was measured at 10, 20, 30, 40, 60, 90, and 120 minutes after glucose injection. Between each of these time points, the mouse was returned to its cage and monitored (at least 6 replicate mice were used for each time-point). The average glucose measurements were plotted as a function of time and the area under the curve (AUC) was determined.

GIP-R = molecular target: T2, GIP-R (Homo sapiens, UniProt P48546); assay: HitHunter cAMP assay (GIP-R); format: cell-based; details: cAMP; for EC50: read-out: EC50 GIP-R/nM; for Emax: read-out: (Emax) GIP-R
T2 sequence (P48546 22-466): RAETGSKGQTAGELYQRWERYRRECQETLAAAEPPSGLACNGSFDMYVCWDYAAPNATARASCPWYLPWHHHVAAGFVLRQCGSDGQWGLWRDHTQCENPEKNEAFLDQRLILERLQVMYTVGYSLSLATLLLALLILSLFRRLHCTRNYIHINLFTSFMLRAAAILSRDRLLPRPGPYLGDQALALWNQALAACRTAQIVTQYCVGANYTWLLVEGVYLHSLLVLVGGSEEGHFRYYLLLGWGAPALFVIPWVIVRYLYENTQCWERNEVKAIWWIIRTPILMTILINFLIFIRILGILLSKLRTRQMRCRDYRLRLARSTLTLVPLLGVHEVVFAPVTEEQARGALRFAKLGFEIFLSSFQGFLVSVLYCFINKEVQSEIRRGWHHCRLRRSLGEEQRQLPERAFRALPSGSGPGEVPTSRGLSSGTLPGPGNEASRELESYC
Method in brief: as §1

T1 sequence (P43220 24-463): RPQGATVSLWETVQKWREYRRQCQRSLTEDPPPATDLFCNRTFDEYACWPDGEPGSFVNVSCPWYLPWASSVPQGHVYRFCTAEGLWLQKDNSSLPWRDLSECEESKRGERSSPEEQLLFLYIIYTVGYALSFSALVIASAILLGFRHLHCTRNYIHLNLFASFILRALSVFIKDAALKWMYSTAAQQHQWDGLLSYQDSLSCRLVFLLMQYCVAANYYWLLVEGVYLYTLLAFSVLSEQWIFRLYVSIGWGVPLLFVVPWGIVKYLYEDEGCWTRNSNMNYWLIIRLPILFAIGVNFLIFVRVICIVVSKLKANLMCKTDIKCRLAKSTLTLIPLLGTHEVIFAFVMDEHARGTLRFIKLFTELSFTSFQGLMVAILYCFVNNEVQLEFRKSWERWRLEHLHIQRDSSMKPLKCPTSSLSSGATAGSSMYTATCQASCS

Row | Structure (SMILES) | EC50 (GLP-1R [1]) [nM] | (Emax) GLP-1R (GLP-1R [2]; Table 3) [%] | EC50 (GLP-1R [2]; Table 3) [nM] | (Emax) GLP-1R (GLP-1R [2]; Table 3A) [%] | EC50 (GLP-1R [2]; Table 3A) [nM] | AUC score (mice) | (Emax) GIP-R (GIP-R; Table 3) [%] | EC50 (GIP-R; Table 3) [nM] | (Emax) GIP-R (GIP-R; Table 3A) [%] | EC50 (GIP-R; Table 3A) [nM] | Emax (GLP-1R [2]; Table 3) [%] | Emax (GLP-1R [2]; Table 3A) [%] | Emax (GIP-R; Table 3) [%] | Emax (GIP-R; Table 3A) [%]
1 | CCCCCCCCCCCCCCCC(=O)N[C@@H](CCC(=O)NCCCC[C@H](NC(=O)[C@H](CO)NC(=O)[C@@H]1CCCN1C(=O)[C@@H]1CCCN1C(=O)[C@@H]1CCCN1C(=O)[C@H](C)NC(=O)CNC(=O)[C@H](CO)NC(=O)[C@H](CO)NC(=O)[C@@H]1CCCN1C(=O)CNC(=O)CNC(=O)[C@H](C)NC(=O)[C@H](CC(C)C)NC(=O)[C@H](CC(C)C)NC(=O)[C@H](Cc1c[nH]c2ccccc12)NC(=O)[C@H](CC(N)=O)NC(=O)[C@@H](NC(=O)[C@H](Cc1ccccc1)NC(=O)[C@H](CCC(=O)O)NC(=O)C(C)(C)NC(=O)[C@H](C)NC(=O)[C@H](C)NC(=O)[C@H](CCC(N)=O)NC(=O)[C@H](CCCCN)NC(=O)[C@H](CC(=O)O)NC(=O)[C@H](CC(C)C)NC(=O)[C@H](Cc1ccc(O)cc1)NC(=O)[C@@H](NC(=O)[C@H](CO)NC(=O)[C@H](Cc1ccc(O)cc1)NC(=O)[C@H](CC(=O)O)NC(=O)[C@H](CO)NC(=O)[C@@H](NC(=O)[C@H](Cc1ccccc1)NC(=O)[C@@H](NC(=O)CNC(=O)[C@H](CCC(=O)O)NC(=O)CSCC(=O)NCCN1CCC(C)C1=O)[C@@H](C)O)[C@@H](C)O)[C@@H](C)CC)C(C)C)C(N)=O)C(=O)O (single isomer, unassigned) [Compound 69] | > 1000 | 104 | 0.1 to 1 | 104 | 0.1 to 1 | 2 (AUC score 2 = 26-50%) | 75 | 1 to 10 | 75 | 1 to 10 |  |  |  | 
2 | CCCCCCCCCCCCCCCC(=O)N[C@@H](CCC(=O)NCCCC[C@H](NC(=O)[C@H](CO)NC(=O)[C@@H]1CCCN1C(=O)[C@@H]1CCCN1C(=O)[C@@H]1CCCN1C(=O)[C@H](C)NC(=O)CNC(=O)[C@H](CO)NC(=O)[C@H](CO)NC(=O)[C@@H]1CCCN1C(=O)CNC(=O)CNC(=O)[C@H](C)NC(=O)[C@H](CC(C)C)NC(=O)[C@H](CC(C)C)NC(=O)[C@H](Cc1c[nH]c2ccccc12)NC(=O)[C@H](CC(N)=O)NC(=O)[C@@H](NC(=O)[C@H](Cc1ccccc1)NC(=O)[C@H](CCC(=O)O)NC(=O)C(C)(C)NC(=O)[C@H](C)NC(=O)[C@H](C)NC(=O)[C@H](CCC(N)=O)NC(=O)[C@H](CCCCN)NC(=O)[C@H](CC(=O)O)NC(=O)[C@H](CC(C)C)NC(=O)[C@H](Cc1ccc(O)cc1)NC(=O)[C@@H](NC(=O)[C@H](CO)NC(=O)[C@H](Cc1ccc(O)cc1)NC(=O)[C@H](CC(=O)O)NC(=O)[C@H](CO)NC(=O)[C@@H](NC(=O)[C@H](Cc1ccccc1)NC(=O)[C@@H](NC(=O)CNC(=O)[C@H](CCC(=O)O)NC(=O)CSCC(=O)NCCN1C(=O)COC1=O)[C@@H](C)O)[C@@H](C)O)[C@@H](C)CC)C(C)C)C(N)=O)C(=O)O [Compound 59] |  |  | < 0.1 |  | < 0.1 | 3 (AUC score 3 = 51-75%) |  | 1 to 10 |  | 1 to 10 | 108 | 108 | 31 | 31
